Reference: PMC8036666, “Biological and Physico-Chemical Characteristics of Arginine-Rich Peptide Gemini Surfactants with Lysine and Cystine Spacers” (International Journal of Molecular Sciences, 2021)
Values after ≈ are worked out from the molar mass of the structure shown. Read-outs that look alike come from different tables or passages of the source. Marks after values point to notes of the source that are not given here. One block for each compound: values may come before it. Where a SMILES comes first, the peptide text is derived from it. Bridges are numbered along the chain shown (N, C = ends). Roman numbers before positions name the chains, in order. Side-chain parts run from the residue outwards. The star is where a group is joined. Myristoyl = CCCCCCCCCCCCCC(=O)*; Lauroyl = CCCCCCCCCCCC(=O)*; Decanoyl = CCCCCCCCCC(=O)*; Octanoyl = CCCCCCCC(=O)*

Key:
[1] = tested on: human red blood cells (hRBCs); conditions: cited from earlier work
S. aureus ATCC 33591 = type: cell-based, Staphylococcus aureus
Experimental: (§1) Minimal inhibitory concentrations of lipopeptides were determined in the presence of human serum to evaluate the effect of enzymatic degradation and protein binding of lipopeptides on antimicrobial activity. Serum concentrations were 1% and 10% (v/v). S. aureus (ATCC 33591), P. aeruginosa (ATCC 9027), and C. glabrata (ATCC 15126) were selected to this study.
(§2) The MICs were determined by the broth microdilution method according to the Clinical and Laboratory Standard Institute guidelines. For this purpose, initial inoculums of bacteria (5 × 10^5 CFU/mL) in MHB and yeasts (2 × 10^3 CFU/mL) in RPMI-1640 with 2% D-glucose were exposed to the ranging concentration of lipopeptides (0.5–256 μg/mL) and incubated at 37 °C for 18 h and 24 h, respectively. The experiments were conducted on 96-well microtiter polystyrene plates (Kartell, Noviglio, Italy). The growth was assessed visually after incubation, and the MIC was assumed as the lowest peptide concentration at which a noticeable growth of microorganisms was inhibited. All experiments were conducted in triplicate.
(§3) The MICs were determined in the presence of normal human serum (NHS; Sigma-Aldrich, Human Serum, Normal) in concentrations of 1 and 10% (v/v). NHS was stored frozen at −20 °C and thawed just before use. Microorganisms were cultivated as described in 3.4.1. Serial dilutions of compounds, inoculum density, medium, and incubation conditions were prepared as described in Section 3.4.2. Stock solutions of test compounds were prepared in appropriate culture medium.

P. aeruginosa ATCC 9027 = type: cell-based, Pseudomonas aeruginosa
Experimental: as §1, §2, §3

C. glabrata ATCC 15126 = type: cell-based, Candida glabrata
Experimental: as §1, §2, §3

[2] = tested on: E. coli ML-35 (ATCC 43827)
From the text: (§4) The permeabilization of E. coli ML-35 (ATCC 43827) membranes was studied for selected compounds (A4, B2, C2, B7, and C7) to compare their activity and membrane disruption over time. […] For OM and IM permeabilization, CENTA and ONPG were used, respectively. The permeabilization of OM causes the release of periplasmic β-lactamase, which hydrolyzes CENTA’s β-lactam ring to form a chromophore, 2-nitro-5-thiobenzoate (TNB) anion, while the disruption of IM results in the release of β-galactosidase, which hydrolyzes ONPG into galactose and a chromophore, ortho-nitrophenol (ONP). Both products of enzymatic reaction absorb light at 405 nm.
as §2
Inner and outer membranes permeabilization kinetics were evaluated using Escherichia coli ML-35 (ATCC 43827) and chromogenic substrates—CENTA (BioVision, Milpitas, CA, USA) and o-nitrophenyl-β-d-galactopyranoside (ONPG) (Sigma-Aldrich, Steinheim, Germany), as described previously. To examine OM permeabilization, CENTA was used as a β-lactamase substrate. In effect of OM permeabilization, the enzyme can hydrolyze CENTA’s β-lactam ring. The resulting color change (2-nitro-5-thiobenzoate anion, TNB^-) could be measured spectrophotometrically at 405 nm. The IM permeabilization was monitored with ONPG, which is a chromogenic β-galactosidase substrate. The product of this reaction ([…]) was measured spectrophotometrically at 405 nm (Multiskan GO Microplate Spectrophotometer, Thermo Fisher Scientific, Vantaa, Finland). […] Bacteria were incubated in lysogeny broth medium (LB; Biocorp, Warszawa, Poland) for 24 h at 37 °C. Subsequently, the cells were diluted in a fresh LB medium and incubated at 37 °C up to a mid-log phase (ca. 3 h). The culture was centrifuged (3 min, 1100× g) and rinsed twice with a PBS. The bacteria were resuspended in PBS up to a concentration of 5 × 10^6 CFU/mL. The final concentration of ONPG and CENTA was 1.5 mM and 0.15 mM, respectively. The ONPG/CENTA in PBS (Sigma-Aldrich, Steinheim, Germany) was used as a negative control. […] Readings were taken every 15 min for 3 h at 37 °C [125, 142, 143, 144]. Experiments were performed in triplicate on 96-well flat bottom microtiter polystyrene plates.

[3] = tested on: E. coli ML-35 (ATCC 43827); test: Inner membrane (IM) permeabilization kinetics, ONPG; type: cell-based, Escherichia coli; conditions: for ti (t2), incubation time at the intersection of two tangents, IM permeabilization: 32 µg/mL; for ti (t1), incubation time at the intersection of two tangents, IM permeabilization: 64 µg/mL
From the text: as §4
Inner and outer membranes permeabilization kinetics were evaluated using Escherichia coli ML-35 (ATCC 43827) and chromogenic substrates—CENTA (BioVision, Milpitas, CA, USA) and o-nitrophenyl-β-d-galactopyranoside (ONPG) (Sigma-Aldrich, Steinheim, Germany), as described previously. To examine OM permeabilization, CENTA was used as a β-lactamase substrate. In effect of OM permeabilization, the enzyme can hydrolyze CENTA’s β-lactam ring.

Structure (SMILES): CCCCCCCC(=O)N[C@@H](CCCNC(=N)N)C(=O)N[C@@H](CCCNC(=N)N)C(N)=O [Compound A1, C8-RR-NH2] (Octanoyl-Arg-Arg-NH2)
HC50 [1]: >256 * µg/mL

Structure (SMILES): CCCCCCCCCC(=O)N[C@@H](CCCNC(=N)N)C(=O)N[C@@H](CCCNC(=N)N)C(N)=O [Compound A2, C10-RR-NH2] (Decanoyl-Arg-Arg-NH2)
HC50 [1]: >256 * µg/mL

Structure (SMILES): CCCCCCCCCCCC(=O)N[C@@H](CCCNC(=N)N)C(=O)N[C@@H](CCCNC(=N)N)C(N)=O [Compound A3, C12-RR-NH2] (Lauroyl-Arg-Arg-NH2)
HC50 [1]: >256 * µg/mL

Structure (SMILES): CCCCCCCCCCCCCC(=O)N[C@@H](CCCNC(=N)N)C(=O)N[C@@H](CCCNC(=N)N)C(N)=O [Compound A4, C14-RR-NH2] (Myristoyl-Arg-Arg-NH2)
MIC S. aureus ATCC 33591 (S. aureus ATCC 33591; human serum 10% (v/v)): 64 µg/mL (≈ 119 µM)
MIC P. aeruginosa ATCC 9027 (P. aeruginosa ATCC 9027; human serum 10% (v/v)): 256 µg/mL (≈ 474 µM)
MIC C. glabrata ATCC 15126 (C. glabrata ATCC 15126; human serum 10% (v/v)): 256 µg/mL (≈ 474 µM)
MIC E. coli ML-35 (ATCC 43827) [2]: 32 µg/mL (≈ 59.3 µM)
ti (t2), incubation time at the intersection of two tangents, IM permeabilization [3]: 77.6 min
ti (t1), incubation time at the intersection of two tangents, IM permeabilization [3]: 39.0 min

Structure (SMILES): CCCCCCCCCC(=O)N[C@@H](CCCNC(=N)N)C(=O)N[C@@H](CCCNC(=N)N)C(=O)NCCCC[C@H](NC(=O)[C@H](CCCNC(=N)N)NC(=O)[C@H](CCCNC(=N)N)NC(=O)CCCCCCCCC)C(N)=O [Compound B2] (Decanoyl-Arg-Arg-Lys([Arg-Arg-Decanoyl])-NH2)
MIC E. coli ML-35 (ATCC 43827) [2]: 32 µg/mL (≈ 29.7 µM)

MIC S. aureus ATCC 33591 (S. aureus ATCC 33591; human serum 10% (v/v)): 16 µg/mL (≈ 14.1 µM)
MIC P. aeruginosa ATCC 9027 (P. aeruginosa ATCC 9027; human serum 10% (v/v)): 64 µg/mL (≈ 56.4 µM)
MIC C. glabrata ATCC 15126 (C. glabrata ATCC 15126; human serum 10% (v/v)): > 256 µg/mL
Structure (SMILES): CCCCCCCCCCCC(=O)N[C@@H](CCCNC(=N)N)C(=O)N[C@@H](CCCNC(=N)N)C(=O)NCCCC[C@H](NC(=O)[C@H](CCCNC(=N)N)NC(=O)[C@H](CCCNC(=N)N)NC(=O)CCCCCCCCCCC)C(N)=O [Compound B3] (Lauroyl-Arg-Arg-Lys([Arg-Arg-Lauroyl])-NH2)

Structure (SMILES): CCCCCCC(CCCC)C(=O)N[C@@H](CCCNC(=N)N)C(=O)N[C@@H](CCCNC(=N)N)C(=O)NCCCC[C@H](NC(=O)[C@H](CCCNC(=N)N)NC(=O)[C@H](CCCNC(=N)N)NC(=O)C(CCCC)CCCCCC)C(N)=O (some centres unmarked) [Compound B7]
MIC S. aureus ATCC 33591 (S. aureus ATCC 33591; human serum 10% (v/v)): 8 µg/mL (≈ 7.05 µM)
MIC P. aeruginosa ATCC 9027 (P. aeruginosa ATCC 9027; human serum 10% (v/v)): 128 µg/mL (≈ 113 µM)
MIC C. glabrata ATCC 15126 (C. glabrata ATCC 15126; human serum 10% (v/v)): 64 µg/mL (≈ 56.4 µM)
MIC E. coli ML-35 (ATCC 43827) [2]: 32 µg/mL (≈ 28.2 µM)

Structure (SMILES): CCCCCCCCCC(=O)N[C@@H](CCCNC(=N)N)C(=O)N[C@@H](CCCNC(=N)N)C(=O)N[C@@H](CSSC[C@H](NC(=O)[C@H](CCCNC(=N)N)NC(=O)[C@H](CCCNC(=N)N)NC(=O)CCCCCCCCC)C(N)=O)C(N)=O [Compound C2] (I: Decanoyl-Arg-Arg-Cys-NH2 / II: Decanoyl-Arg-Arg-Cys-NH2; disulfide I:3-II:3)
MIC E. coli ML-35 (ATCC 43827) [2]: 32 µg/mL (≈ 27.3 µM)
ti (t2), incubation time at the intersection of two tangents, IM permeabilization [3]: 45.7 min
ti (t1), incubation time at the intersection of two tangents, IM permeabilization [3]: 42.0 min

MIC S. aureus ATCC 33591 (S. aureus ATCC 33591; human serum 10% (v/v)): 32 µg/mL (≈ 26.1 µM)
MIC P. aeruginosa ATCC 9027 (P. aeruginosa ATCC 9027; human serum 10% (v/v)): 256 µg/mL (≈ 209 µM)
MIC C. glabrata ATCC 15126 (C. glabrata ATCC 15126; human serum 10% (v/v)): > 256 µg/mL
Structure (SMILES): CCCCCCCCCCCC(=O)N[C@@H](CCCNC(=N)N)C(=O)N[C@@H](CCCNC(=N)N)C(=O)N[C@@H](CSSC[C@H](NC(=O)[C@H](CCCNC(=N)N)NC(=O)[C@H](CCCNC(=N)N)NC(=O)CCCCCCCCCCC)C(N)=O)C(N)=O [Compound C3] (I: Lauroyl-Arg-Arg-Cys-NH2 / II: Lauroyl-Arg-Arg-Cys-NH2; disulfide I:3-II:3)

Structure (SMILES): CCCCCCCC(=O)N[C@@H](Cc1ccccc1)C(=O)N[C@@H](CCCNC(=N)N)C(=O)N[C@@H](CCCNC(=N)N)C(=O)N[C@@H](CSSC[C@H](NC(=O)[C@H](CCCNC(=N)N)NC(=O)[C@H](CCCNC(=N)N)NC(=O)[C@H](Cc1ccccc1)NC(=O)CCCCCCC)C(N)=O)C(N)=O [Compound C5] (I: Octanoyl-FRRC-NH2 / II: Octanoyl-FRRC-NH2; disulfide I:4-II:4)
MIC S. aureus ATCC 33591 (S. aureus ATCC 33591; human serum 0% (v/v)): 2 µg/mL (≈ 1.42 µM)
MIC S. aureus ATCC 33591 (S. aureus ATCC 33591; human serum 1% (v/v)): 64 µg/mL (≈ 45.4 µM)
MIC S. aureus ATCC 33591 (S. aureus ATCC 33591; human serum 10% (v/v)): 256 µg/mL (≈ 182 µM)
MIC P. aeruginosa ATCC 9027 (P. aeruginosa ATCC 9027; human serum 0% (v/v)): 8 µg/mL (≈ 5.67 µM)
MIC P. aeruginosa ATCC 9027 (P. aeruginosa ATCC 9027; human serum 1% (v/v)): 128 µg/mL (≈ 90.8 µM)
MIC P. aeruginosa ATCC 9027 (P. aeruginosa ATCC 9027; human serum 10% (v/v)): >256 µg/mL
MIC C. glabrata ATCC 15126 (C. glabrata ATCC 15126; human serum 0% (v/v)): 8 µg/mL (≈ 5.67 µM)
MIC C. glabrata ATCC 15126 (C. glabrata ATCC 15126; human serum 1% (v/v)): 128 µg/mL (≈ 90.8 µM)
MIC C. glabrata ATCC 15126 (C. glabrata ATCC 15126; human serum 10% (v/v)): >256 µg/mL

Structure (SMILES): CCCCCCC(CCCC)C(=O)N[C@@H](CCCNC(=N)N)C(=O)N[C@@H](CCCNC(=N)N)C(=O)N[C@@H](CSSC[C@H](NC(=O)[C@H](CCCNC(=N)N)NC(=O)[C@H](CCCNC(=N)N)NC(=O)C(CCCC)CCCCCC)C(N)=O)C(N)=O (some centres unmarked) [Compound C7]
MIC S. aureus ATCC 33591 (S. aureus ATCC 33591; human serum 10% (v/v)): 64 µg/mL (≈ 52.1 µM)
MIC P. aeruginosa ATCC 9027 (P. aeruginosa ATCC 9027; human serum 10% (v/v)): 256 µg/mL (≈ 209 µM)
MIC C. glabrata ATCC 15126 (C. glabrata ATCC 15126; human serum 10% (v/v)): 256 µg/mL (≈ 209 µM)
MIC E. coli ML-35 (ATCC 43827) [2]: 64 µg/mL (≈ 52.1 µM)
ti (t2), incubation time at the intersection of two tangents, IM permeabilization [3]: 68.6 min
ti (t1), incubation time at the intersection of two tangents, IM permeabilization [3]: 43.9 min
